Laboratory results from patent publication US8415339B2, “Bactericidal anti-MRSA active pharmaceutical composition containing carbapenems” (priority 2007, dated 2013).
Several values for one entry are separate records, joined by “and”; a condition that tells them apart may be missing. Identical values can stand only once.

Assays:
Staph. Innsbruck [1] = assay: Agar diffusion (plate/disk) test, inhibition zone; format: cell-based, Staph. aureus; conditions: 20 hrs at 37° C.; for zone of inhibition at 10 µg/disc: Staphylococcus aureus, 20 h, read-out: Diameter of inhibition zone
Description: (§1) Inhibition zone diameters were determined on Difco Nutrient Agar (10 ml) in sterile dishes (8.5 cm) using ca. 10^6-10^7 colony forming units. 0.2 ml of a bacterial suspension (overnight culture in Difco Nutrient Broth) was mixed at 52° C. with the sterile liquid agar. It solidified at room temperature. Sterile filter disks (6 mm) were placed on the agar surface. Appropriate volumes of a 0.2% aqueous solutions of antibiotics were transferred to the disks by a precision syringe. Alternatively, commercial impregnated disks (Oxoid) were used.
(§2) The inhibition zone diameter was measured after 20 hrs at 37° C. For determination of bactericidal activity, incubation at 37° C. was continued for additional 40 hrs. A clear inhibition zone after additional incubation indicated bactericidity (B).

MRSA 7268/02 [2] = assay: Agar diffusion (plate/disk) test, inhibition zone; format: cell-based, Staph. aureus; conditions: 20 hrs at 37° C.; for zone of inhibition at 10 µg/disc: Staphylococcus aureus, MRSA, 20 h, read-out: Diameter of inhibition zone
Description: as §1, §2

Staph. Innsbruck [3] = assay: Minimal inhibitory concentration, agar dilution; format: cell-based, Staph. aureus; conditions: Difco Nutrient Agar, 20 hrs at 37° C., combinations as a + b; for MIC: Staphylococcus aureus
Description: (§3) Minimal inhibitory concentrations were determined using Difco Nutrient Agar. Appropriate volumes of 0.1% aqueous solutions of antibiotics were added into sterile dishes (8.5 cm) in twofold dilutions and mixed with 10 ml of sterile liquid agar of 50° C. The solid agar was inoculated with 3 μl of an 0.5 McFarland bacterial solution in Difco Nutrient Broth, corresponding to approx. 10^5 colony forming units. Bacterial growth was recorded after 20 hrs of incubation at 37° C.

MRSA 7268/02 [4] = assay: Minimal inhibitory concentration, agar dilution; format: cell-based, Staph. aureus; conditions: Difco Nutrient Agar, 20 hrs at 37° C., combinations as a + b; for MIC: Staphylococcus aureus, MRSA
Description: as §3

MRSA 7268/02 [5] = assay: Time dependent counting of colony forming units (cfu); format: cell-based, Staph. aureus
MRSA München 12797 = assay: Mouse septicaemia test; format: in vivo; conditions: s. c., at 1 hr and 4 hr after i.v. infection, observed 10 days
Description: In vivo activity was determined by a mouse septicaemia test using immunocompetent animals of 30 g weight (6 animals per group). Infection was performed with MRSA München 12797 at a concentration of approx. 2×10^9 cfu/mouse by the i.v. route (lethal dose). Therapy was performed at daily doses from 5+5 to 75+75 mg/kg by s. c. route (equivalent amounts at time 1 hr and 4 hr after infection).

[6] = single antibiotic 30 μg per disk
[7] = carbapenem alone 10 μg per disk

| SMILES | Diameter of inhibition zone (Staph. Innsbruck [1]; [6]) | Diameter of inhibition zone (MRSA 7268/02 [2]; [6]) | also measured |
| --- | --- | --- | --- |
| CC1(C)S[C@@H]2[C@H](NC(=O)[C@H](N)c3ccc(O)cc3)C(=O)N2[C@H]1C(=O)O [Amoxicillin] | 10 mm | 0 mm | MIC (Staph. Innsbruck [3]): 64 µg/mL; MIC (MRSA 7268/02 [4]): 32 µg/mL |
| CC1(C)S[C@@H]2[C@H](NC(=O)[C@H](N)c3ccccc3)C(=O)N2[C@H]1C(=O)O [Ampicillin] | 12 mm | 12 mm |  |
| CC1(C)S[C@@H]2[C@H](NC(=O)C(C(=O)O)c3ccccc3)C(=O)N2[C@H]1C(=O)O (stereo partly shown) [Carbenicillin] |  | 0 mm |  |
| N[C@@H](C(=O)N[C@@H]1C(=O)N2C(C(=O)O)=C(Cl)CS[C@H]12)c1ccccc1 [Cefaclor] |  | 11 mm |  |
| Cc1nnc(SCC2=C(C(=O)O)N3C(=O)[C@@H](NC(=O)Cn4cnnn4)[C@H]3SC2)s1 [Cefazolin] | 0 mm | 0 mm |  |
| C=CC1=C(C(=O)O)N2C(=O)[C@@H](NC(=O)/C(=N\O)c3csc(N)n3)[C@H]2SC1 [Cefdinir] |  | 0 mm |  |
| C=CC1=C(C(=O)O)N2C(=O)[C@@H](NC(=O)/C(=N\OCC(=O)O)c3csc(N)n3)[C@H]2SC1 [Cefixim] | 0 mm |  |  |
| CCN1CCN(C(=O)N[C@@H](C(=O)N[C@@H]2C(=O)N3C(C(=O)O)=C(CSc4nnnn4C)CS[C@H]23)c2ccc(O)cc2)C(=O)C1=O [Cefoperazone] |  | 9 mm |  |
| CO/N=C(\C(=O)N[C@@H]1C(=O)N2C(C(=O)O)=C(COC(C)=O)CS[C@H]12)c1csc(N)n1 [Cefotaxime] | 0 mm | 0 mm |  |
| CN(C)CCn1nnnc1SCC1=C(C(=O)O)N2C(=O)[C@@H](NC(=O)Cc3csc(N)n3)[C@H]2SC1 [Cefotiam] | 0 mm |  |  |
| CO[C@@]1(NC(=O)Cc2cccs2)C(=O)N2C(C(=O)O)=C(COC(N)=O)CS[C@@H]21 [Cefoxitin] | 11 mm | 0 mm | MIC (Staph. Innsbruck [3]): 32 µg/mL |
| NC(=O)c1cc[n+](CC2=C(C(=O)[O-])N3C(=O)[C@@H](NC(=O)[C@@H](c4ccccc4)S(=O)(=O)O)[C@H]3SC2)cc1 [Cefsudolin] | 0 mm | 0 mm |  |
| CO/N=C(\C(=O)N[C@@H]1C(=O)N2C(C(=O)O)=C(CSc3nc(=O)c(=O)[nH]n3C)CS[C@H]12)c1csc(N)n1 [Ceftriaxon] | 0 mm | 0 mm |  |
| CO/N=C(\C(=O)N[C@@H]1C(=O)N2C(C(=O)O)=C(COC(N)=O)CS[C@H]12)c1ccco1 [Cefuroxim] |  | 0 mm |  |
| CC(=O)OCC1=C(C(=O)O)N2C(=O)[C@@H](NC(=O)Cc3cccs3)[C@H]2SC1 [Cephalothin] |  | 0 mm |  |
| Cc1onc(-c2ccccc2Cl)c1C(=O)N[C@@H]1C(=O)N2[C@@H]1SC(C)(C)[C@@H]2C(=O)O [Cloxacillin] | 0 mm | 0 mm |  |
| Cc1onc(-c2c(Cl)cccc2Cl)c1C(=O)N[C@@H]1C(=O)N2[C@@H]1SC(C)(C)[C@@H]2C(=O)O [Dicloxacillin] | 0 mm | 0 mm |  |
| CC1(C)S[C@@H]2[C@H](NC(=O)[C@H](N)C3=CCC=CC3)C(=O)N2[C@H]1C(=O)O [Epicillin] | 10 mm and 14 mm and 12 mm | 14 mm and 12 mm | Reduction of cfu's, substance used alone (MRSA 7268/02 [5]): Neither epicillin, nor linezolide showed any significant reduction of cfu's; Minimal Inhibitory concentration (Staph. Innsbruck [3]): 32 µg/mL; Minimal Inhibitory concentration (MRSA 7268/02 [4]): 32 µg/mL |
| C[C@@H](O)[C@H]1C(=O)N2C(C(=O)O)=C(S[C@@H]3CN[C@H](C(=O)Nc4cccc(C(=O)O)c4)C3)[C@H](C)[C@H]12 [Ertapenem] |  |  | zone of inhibition at 10 µg/disc (Staph. Innsbruck [1]; [7]): 0 mm; zone of inhibition at 10 µg/disc (MRSA 7268/02 [2]; [7]): 0 mm |
| COCSC1=C(C(=O)[O-])N2C(=O)[C@H]([C@@H](C)O)[C@H]2[C@H]1C.[K+] [GH 478, Potassium (1R,5S,6S)-6-[(R)-1-hydroxyethyl]-2-methoxymethylthio-1-methylcarbapen-2-em-3-carboxylate] |  |  | Diameter of inhibition zone (Staph. Innsbruck [1]; [7]): 0 mm |
| CC(=O)NCSC1=C(C(=O)[O-])N2C(=O)[C@H]([C@@H](C)O)[C@H]2[C@H]1C.[K+] [GH 519, Potassium (1R,5S,6S)-2-[(N-acetylamino)methylthio]-6-[(R)-1-hydroxyethyl]-1-methyl-carbapenen-2-em-3-carboxylate] |  |  | Diameter of inhibition zone (Staph. Innsbruck [1]; [7]): 0 mm; Diameter of inhibition zone (MRSA 7268/02 [2]; [7]): 0 mm |
| C[C@@H](O)[C@H]1C(=O)N2C(C(=O)O)=C(SCOCCN)[C@H](C)[C@H]12 [GH 570, (1R,5S,6S)-2-[(2-Aminoethyl)oxy]metlhylthio-6-[(R)-1-hydroxyethyl]-1-methylcarbapen-2-em-3-carboxylic acid] |  |  | Diameter of inhibition zone (Staph. Innsbruck [1]; [7]): 0 mm; Diameter of inhibition zone (MRSA 7268/02 [2]; [7]): 0 mm |
| C[C@@H](O)[C@H]1C(=O)N2C(C(=O)O)=C(SCCN=CN)C[C@H]12 [Imipenem] |  |  | zone of inhibition at 10 µg/disc (Staph. Innsbruck [1]; [7]): 8 mm; zone of inhibition at 10 µg/disc (MRSA 7268/02 [2]; [7]): 8 mm |
| C[C@@H](O)[C@H]1C(=O)N2C(C(=O)O)=C(S[C@@H]3CN[C@H](C(=O)N(C)C)C3)[C@H](C)[C@H]12 [Meropenem] |  |  | Bactericidal effect compared with epicillin/meropenem 2+2 μg/ml (MRSA 7268/02 [5]; 4 μg/ml alone): less bactericidal than the epicillin/meropenem composition at 2+2 μg/ml; zone of inhibition at 10 µg/disc (Staph. Innsbruck [1]; [7]): 14 mm; zone of inhibition at 10 µg/disc (MRSA 7268/02 [2]; [7]): 13 mm; ED90 (MRSA München 12797): > 75+75 mg/kg; MIC (Staph. Innsbruck [3]): 32 µg/mL; MIC (MRSA 7268/02 [4]): 16 µg/mL |
| COc1cccc(OC)c1C(=O)N[C@@H]1C(=O)N2[C@@H]1SC(C)(C)[C@@H]2C(=O)O [Methicillin] | 0 mm |  |  |
| CO[C@@]1(NC(=O)C(C(=O)O)c2ccc(O)cc2)C(=O)N2C(C(=O)O)=C(CSc3nnnn3C)CO[C@@H]21 (stereo partly shown) [Moxalactam] | 8 mm |  |  |
| Cc1onc(-c2ccccc2)c1C(=O)N[C@@H]1C(=O)N2[C@@H]1SC(C)(C)[C@@H]2C(=O)O [Oxacillin] | 0 mm | 0 mm |  |
| CCN1CCN(C(=O)N[C@@H](C(=O)N[C@@H]2C(=O)N3[C@@H]2SC(C)(C)[C@@H]3C(=O)O)c2ccccc2)C(=O)C1=O [Piperacillin] | 0 mm | 0 mm |  |
| CN[C@H](CC(C)C)C(=O)N[C@H]1C(=O)N[C@@H](CC(N)=O)C(=O)N[C@H]2C(=O)N[C@H]3C(=O)N[C@H](C(=O)N[C@H](C(=O)O)c4cc(O)cc(O)c4-c4cc3ccc4O)[C@H](O)c3ccc(c(Cl)c3)Oc3cc2cc(c3O[C@@H]2O[C@H](CO)[C@@H](O)[C@H](O)[C@H]2O[C@H]2C[C@](C)(N)[C@H](O)[C@H](C)O2)Oc2ccc(cc2Cl)[C@H]1O [Vancomycin] | 20 mm | 19 mm |  |
| CC(=O)NC[C@H]1CN(c2ccc(N3CCOCC3)c(F)c2)C(=O)O1 [linezolide] |  |  | Reduction of cfu's, substance used alone (MRSA 7268/02 [5]): Neither epicillin, nor linezolide showed any significant reduction of cfu's |
